Bridge positions count the residues as written; N and C are the ends. Square brackets hold non-standard residues; d marks the D form. Ends that are not written are not given here. S5 = C=CCCC[C@](C)(N)C(=O)O
Tests used:
[1] = tested on: CreER^T2 MEFs; assay: MS-based acylcarnitine quantification in MEFs; type: cell-based, mouse; conditions: 10 μM
[2] = target: T1, MCAD (Mus musculus, UniProt P45952); assay: Biotinylated SAHB pulldown from MEF lysates, MCAD Western analysis; type: binding; conditions: wild-type MEF lysates
T1 construct: endogenous in cells; host or cells: wild-type mouse embryonic fibroblasts (lysate)
T1 sequence (P45952 26-421): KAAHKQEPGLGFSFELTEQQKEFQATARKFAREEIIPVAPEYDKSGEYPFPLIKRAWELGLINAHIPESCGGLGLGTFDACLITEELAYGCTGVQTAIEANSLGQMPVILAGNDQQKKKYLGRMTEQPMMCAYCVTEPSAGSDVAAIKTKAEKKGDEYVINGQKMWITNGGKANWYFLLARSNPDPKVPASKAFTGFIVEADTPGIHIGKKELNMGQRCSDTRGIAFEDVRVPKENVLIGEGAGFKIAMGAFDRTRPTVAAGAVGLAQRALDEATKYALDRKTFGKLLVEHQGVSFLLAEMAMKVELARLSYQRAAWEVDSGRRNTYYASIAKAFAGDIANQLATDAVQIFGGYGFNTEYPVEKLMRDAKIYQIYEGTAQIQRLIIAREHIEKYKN
Excerpt: To validate the MS result, the pulldowns were repeated and eluates run on a gel for anti-VLCAD Western blot analysis. […] All peptides faithfully recapitulated native BH3-binding propensities for endogenous MCL-1 protein (FIG. 8). The eluates were then probed for the other members of the acyl-CoA dehydrogenase family that manifest shorter fatty acid substrate specificities. MCL-1 SAHBD was able to pull down VLCAD, but not MCAD or SCAD (FIG. 9). Because the traditional MCL-1 staple location differs from that of the BIM, BID, and BAD SAHBs, it was important to confirm that the observed VLCAD binding specificity was due to BH3 sequence selectivity, not staple position. A BIM SAHB with the traditional MCL-1 staple (BIM SAHBF), and a MCL-1 stapled peptide with the traditional BIM staple (MCL-1 SAHBA), were generated. […]
Wild-type MEFs were trypsinized, washed once with cold PBS, and lysed on ice with NP-40 lysis buffer (50 mM Tris, pH 7.4, 150 mM NaCl, 0.5% (v/v) NP-40, complete protease inhibitor pellet (Roche)) using 1 ml of lysis buffer for every 10 million cells lysed. Cellular debris was pelleted at 14,000 g for 10 min at 4° C., and the supernatant was quantified using the BCA Protein Assay Kit (Thermo Fisher Scientific). […]

MCL-1 SAHBD: hydrocarbon-stapled peptide mimicking the MCL-1 BH3 domain (Stabilized Alpha-Helix of BCL-2 Domain), SEQ ID NO:19 (RKALETLRRVGDGV[S5]RNH[S5]TAF; staple 15-19)
levels of very long-chain acylcarnitines relative to vehicle-treated control ([1]; Mcl-1^F/F CreER^T2 MEFs not exposed to tamoxifen, 48 hours): elevated levels
effect on already elevated acylcarnitine levels ([1]; Mcl-1^F/F CreER^T2 MEFs subjected to tamoxifen (Mcl-1 deleted)): no effect
pull down of MCAD from cellular lysates [2]: not

Reference: US12366576B2, “Compositions, assays, and methods for direct modulation of fatty acid metabolism” (Dana-Farber Cancer Institute, Inc., priority 2016, dated 2025)
